Data taken from patent US4268665A, “Derivatives of antibiotic tylosin” (Toyo Jozo Kabushiki Kaisha, priority 1978, dated 1981).
Values after ≈ are worked out from the molar mass of the structure shown. Like-named read-outs stand apart in the source and are kept apart here.

Key:
Format in all cases: cell-based
Staph.aureus MS353A0 = assay: MIC on Staph.aureus MS353A0 (macrolide-resistant A group); details: Staphylococcus aureus; Staph.aureus MS353A0, erythromycin, oleandomycin, 16-membered macrolide resistant clinical isolate
Source text: (§1) In Table I hereinafter is shown the minimum inhibitory concentrations (MIC) on microorganisms of the products of the present invention. As a result, the compound [1] is seen to be effective against macrolide-resistant A group microorganisms.
(§2) *Erythromycin, oleandomycin, 16membered macrolide resistant strains of
(§3) clinical isolates (macrolideresistant Agroup strains)

Strept.pyogenes N.Y.5 = assay: MIC on Strept.pyogenes N.Y.5; details: Streptococcus pyogenes
Source text: as §1

Strept.pyogenes 1022 = assay: MIC on Strept.pyogenes 1022 (macrolide-resistant A group); details: Streptococcus pyogenes; Strept.pyogenes 1022, erythromycin, oleandomycin, 16-membered macrolide resistant clinical isolate
Source text: as §1, §2, §3

Staph.aureus 0119 = assay: MIC on Staph.aureus 0119 (macrolide-resistant A group); details: Staphylococcus aureus
Source text: as §1, §2, §3

Staph.aureus ATCC6538P = assay: MIC on Staph.aureus ATCC6538P; details: Staphylococcus aureus
Source text: as §1

Staph.aureus 0116 = assay: MIC on Staph.aureus 0116 (macrolide-resistant A group); details: Staphylococcus aureus
Source text: as §1, §2, §3

Staph.aureus MS353 = assay: MIC on Staph.aureus MS353; details: Staphylococcus aureus
Source text: as §1

Staph.aureus 0127 = assay: MIC on Staph.aureus 0127 (macrolide-resistant A group); details: Staphylococcus aureus; Staph.aureus 0127, erythromycin, oleandomycin, 16-membered macrolide resistant clinical isolate
Source text: as §1, §2, §3

[1] = Staph.aureus 0119, erythromycin, oleandomycin, 16-membered macrolide resistant clinical isolate, read-out: MIC
[2] = Staph.aureus 0116, erythromycin, oleandomycin, 16-membered macrolide resistant clinical isolate, read-out: MIC

SMILES | MIC (Staph.aureus MS353A0) [µg/mL] | MIC (Strept.pyogenes N.Y.5) [µg/mL] | MIC (Strept.pyogenes 1022) [µg/mL] | MIC (Staph.aureus 0119; [1]) [µg/mL] | MIC (Staph.aureus ATCC6538P) [µg/mL] | MIC (Staph.aureus 0116; 0116) [µg/mL] | MIC (Staph.aureus MS353) [µg/mL] | MIC (Staph.aureus 0127) [µg/mL] | MIC (Staph.aureus 0119; 0119) [µg/mL] | MIC (Staph.aureus 0116; [2]) [µg/mL]
CCC1OC(=O)CC(O)C(C)C(OC2OC(C)C(OC3CC(C)(OC(C)=O)C(OC(C)=O)C(C)O3)C(N(C)C)C2O)C(CC=O)CC(C)C(=O)C=CC(C)=CC1COC1OC(C)C(O)C(OC)C1OC (stereo not drawn) [3"-Ac, 4"-Ac, 3", 4"-diacetyltylosin] | 12.5 (≈ 12.5 µM) | 0.2 (≈ 0.2 µM) | 6.3 (≈ 6.3 µM) | 50 (≈ 50 µM) | 0.8 (≈ 0.8 µM) | 12.5 (≈ 12.5 µM) | 1.6 (≈ 1.6 µM) | 100 (≈ 100 µM) | – | –
CCCC(=O)OC1C(C)OC(OC2C(C)OC(OC3C(CC=O)CC(C)C(=O)C=CC(C)=CC(COC4OC(C)C(O)C(OC)C4OC)C(CC)OC(=O)CC(O)C3C)C(O)C2N(C)C)CC1(C)OC(C)=O (stereo not drawn) [3"-Ac, 4"-Bu, 3"-acetyl-4"-butyryltylosin] | 12.5 (≈ 12.2 µM) | 0.2 (≈ 0.195 µM) | 1.6 (≈ 1.56 µM) | – | 1.6 (≈ 1.56 µM) | – | 3.1 (≈ 3.01 µM) | 25 (≈ 24.3 µM) | 12.5 (≈ 12.2 µM) | 6.3 (≈ 6.13 µM)
CCCCCC(=O)OC1C(C)OC(OC2C(C)OC(OC3C(CC=O)CC(C)C(=O)C=CC(C)=CC(COC4OC(C)C(O)C(OC)C4OC)C(CC)OC(=O)CC(O)C3C)C(O)C2N(C)C)CC1(C)OC(C)=O (stereo not drawn) [3"-Ac, 4"-Hex, 3"-acetyl-4"-hexanoyltylosin] | 12.5 (≈ 11.8 µM) | 0.4 (≈ 0.379 µM) | 1.6 (≈ 1.51 µM) | – | 1.6 (≈ 1.51 µM) | – | 3.1 (≈ 2.93 µM) | 25 (≈ 23.7 µM) | 12.5 (≈ 11.8 µM) | 6.3 (≈ 5.96 µM)
CCC1OC(=O)CC(O)C(C)C(OC2OC(C)C(OC3CC(C)(OC(C)=O)C(OC(=O)CC(C)C)C(C)O3)C(N(C)C)C2O)C(CC=O)CC(C)C(=O)C=CC(C)=CC1COC1OC(C)C(O)C(OC)C1OC (stereo not drawn) [3"-Ac, 4"-Iva, 3"-acetyl-4"-isovaleryltylosin] | 6.3 (≈ 6.04 µM) | 0.2 (≈ 0.192 µM) | 1.6 (≈ 1.54 µM) | 6.3 (≈ 6.04 µM) | 1.6 (≈ 1.54 µM) | – | 3.1 (≈ 2.97 µM) | 12.5 (≈ 12 µM) | – | 6.3 (≈ 6.04 µM)
CCC(=O)OC1C(C)OC(OC2C(C)OC(OC3C(CC=O)CC(C)C(=O)C=CC(C)=CC(COC4OC(C)C(O)C(OC)C4OC)C(CC)OC(=O)CC(O)C3C)C(O)C2N(C)C)CC1(C)OC(C)=O (stereo not drawn) [3"-Ac, 4"-Pro, 3"-acetyl-4"-propionyltylosin] | 25 (≈ 24.6 µM) | 0.2 (≈ 0.197 µM) | 1.6 (≈ 1.58 µM) | 12.5 (≈ 12.3 µM) | 1.6 (≈ 1.58 µM) | – | 3.1 (≈ 3.06 µM) | 25 (≈ 24.6 µM) | – | 6.3 (≈ 6.21 µM)
CCCC(=O)OC1C(C)OC(OC2C(C)OC(OC3C(CC=O)CC(C)C(=O)C=CC(C)=CC(COC4OC(C)C(O)C(OC)C4OC)C(CC)OC(=O)CC(O)C3C)C(O)C2N(C)C)CC1(C)OC(=O)CCC (stereo not drawn) [3"-Bu, 4"-Bu, 3", 4"-dibutyryltylosin] | 12.5 (≈ 11.8 µM) | 0.2 (≈ 0.189 µM) | 1.6 (≈ 1.51 µM) | – | 1.6 (≈ 1.51 µM) | – | 6.1 (≈ 5.77 µM) | 25 (≈ 23.7 µM) | 12.5 (≈ 11.8 µM) | 6.3 (≈ 5.96 µM)
CCCC(=O)OC1C(C)OC(OC2C(C)OC(OC3C(CC=O)CC(C)C(=O)C=CC(C)=CC(COC4OC(C)C(O)C(OC)C4OC)C(CC)OC(=O)CC(O)C3C)C(O)C2N(C)C)CC1(C)O (stereo not drawn) [3"-H, 4"-Bu, reference compound] | 50 (≈ 50.7 µM) | 0.2 (≈ 0.203 µM) | 12.5 (≈ 12.7 µM) | 50 (≈ 50.7 µM) | 0.8 (≈ 0.811 µM) | – | 3.1 (≈ 3.14 µM) | 100 (≈ 101 µM) | – | 25 (≈ 25.3 µM)
CC[C@H]1OC(=O)C[C@@H](O)[C@H](C)[C@@H](O[C@@H]2O[C@H](C)[C@@H](O[C@H]3C[C@@](C)(O)[C@@H](O)[C@H](C)O3)[C@H](N(C)C)[C@H]2O)[C@@H](CC=O)C[C@@H](C)C(=O)/C=C/C(C)=C/[C@@H]1CO[C@@H]1O[C@H](C)[C@@H](O)[C@@H](OC)[C@H]1OC [3"-H, 4"-H, tylosin] | > 100 | 0.2 (≈ 0.218 µM) | > 100 | > 100 | 0.8 (≈ 0.873 µM) | – | 1.6 (≈ 1.75 µM) | > 100 | – | > 100
CCC1OC(=O)CC(O)C(C)C(OC2OC(C)C(OC3CC(C)(OC(=O)CC(C)C)C(OC(C)=O)C(C)O3)C(N(C)C)C2O)C(CC=O)CC(C)C(=O)C=CC(C)=CC1COC1OC(C)C(O)C(OC)C1OC (stereo not drawn) [3"-Iva, 4"-Ac, 4"-acetyl-3"-isovaleryltylosin] | 6.3 (≈ 6.04 µM) | 0.2 (≈ 0.192 µM) | 6.3 (≈ 6.04 µM) | 25 (≈ 24 µM) | 0.8 (≈ 0.768 µM) | – | 1.6 (≈ 1.54 µM) | > 100 | – | 6.3 (≈ 6.04 µM)
CCCC(=O)OC1C(C)OC(OC2C(C)OC(OC3C(CC=O)CC(C)C(=O)C=CC(C)=CC(COC4OC(C)C(O)C(OC)C4OC)C(CC)OC(=O)CC(O)C3C)C(O)C2N(C)C)CC1(C)OC(=O)CC (stereo not drawn) [3"-Pro, 4"-Bu, 4"-butyryl-3"-propionyltylosin] | 12.5 (≈ 12 µM) | 0.2 (≈ 0.192 µM) | 1.6 (≈ 1.54 µM) | – | 1.6 (≈ 1.54 µM) | – | 3.1 (≈ 2.97 µM) | 25 (≈ 24 µM) | 12.5 (≈ 12 µM) | 6.3 (≈ 6.04 µM)
CCC(=O)OC1(C)CC(OC2C(C)OC(OC3C(CC=O)CC(C)C(=O)C=CC(C)=CC(COC4OC(C)C(O)C(OC)C4OC)C(CC)OC(=O)CC(O)C3C)C(O)C2N(C)C)OC(C)C1OC(=O)CC(C)C (stereo not drawn) [3"-Pro, 4"-Iva, 4"-isovaleryl-3"-propionyltylosin] | 6.3 (≈ 5.96 µM) | 0.4 (≈ 0.379 µM) | 0.8 (≈ 0.757 µM) | 6.3 (≈ 5.96 µM) | 1.6 (≈ 1.51 µM) | – | 3.1 (≈ 2.93 µM) | 12.5 (≈ 11.8 µM) | – | 6.3 (≈ 5.96 µM)
CCC(=O)OC1C(C)OC(OC2C(C)OC(OC3C(CC=O)CC(C)C(=O)C=CC(C)=CC(COC4OC(C)C(O)C(OC)C4OC)C(CC)OC(=O)CC(O)C3C)C(O)C2N(C)C)CC1(C)OC(=O)CC (stereo not drawn) [3"-Pro, 4"-Pro, 3", 4"-dipropionyltylosin] | 25 (≈ 24.3 µM) | 0.2 (≈ 0.195 µM) | 1.6 (≈ 1.56 µM) | 12.5 (≈ 12.2 µM) | 1.6 (≈ 1.56 µM) | – | 3.1 (≈ 3.01 µM) | 25 (≈ 24.3 µM) | – | 6.3 (≈ 6.13 µM)
